Like-named read-outs stand apart in the source and are kept apart here.
Tests used:
[1] = test system: BACE1 inhibition in HEKp293 cells transfected with APP751 gene (SWE293); test: SWE293 cellular assay: reduction of Aβ peptide production, ELISA; type: cell-based; conditions: Homo sapiens, read-out: SWE293 ED50
Method: BACE1 inhibition is also assessed in a cellular assay. HEKp293 cells transfected with APP751 gene (SWE293, American Type Culture Collection CRL-1563) are used to assess compounds for reduction in levels of Aβ peptide production. SWE293 cell medium is DMEM supplemented with 10% fetal bovine serum and 2 mM L-glutamine, 1.0 mM sodium pyruvate, 25 mM Hepes Buffer, 0.4 mg/mL geneticin (G418, Gibco BRL 860-181IIJ). Cells are maintained diluting 1:10 for 4 days in T-150 flask and 35 mL of cell media. For plating, cells are rinsed with 5 mL of 1×PBS, trypsinized with 4 mL of 0.05% Tripsin for 1 minute, and 12 mL of cell media is added. These are centrifuged at 1000 rpm for 4 minutes and the media aspirated, then 8 mL of media per flask is added. Based on cell count, appropriate amounts of cell and cell media are combined, and 180 μl per well are plated (96 well) and the plates are incubated overnight at 37° C., 5% CO2. Compounds to be tested are serially diluted 1:3 in DMSO and twice in media (without G418) in V-bottom plates and incubated at room temperature. Plated cells are washed with media, 3×50 μL per well and 17 μL per well of appropriate dilution of compound is added. Plates are incubated for 2 hours, and the wash steps, compound addition and incubation are repeated. Sample is transferred to capture plate (prepared with 266 antibody, see e.g. Johnson-Wood et al., PNAS February 1997, 94: 1550-1555), along with a standard curve of Aβ-40. ELISA assay is used to assess Aβ levels, washing with TBS, 0.05% Tween20 pH 7.5, then adding 1.3 mg/mL 3D6 antibody 1:900 in specimen diluents with thimericol is added (100 μl per well) and incubated for 1 hour. Wash step is repeated and Streptavidin-AP diluted 1:1000 in specimen diluents with thimerisol is added (100 μL per well) and incubated for 1 hour. Wash step is repeated and fluorescent substrate is added, 100 μL per well and incubated for 10 minutes followed by reading the fluorescent signal on a plate reader.

BACE1 [2] = biological target: T1, BACE1 (Homo sapiens (Human), UniProt P56817); test: BACE1 FP assay; type: biochemical; conditions: pH 4.5
T1 sequence (P56817 46-501): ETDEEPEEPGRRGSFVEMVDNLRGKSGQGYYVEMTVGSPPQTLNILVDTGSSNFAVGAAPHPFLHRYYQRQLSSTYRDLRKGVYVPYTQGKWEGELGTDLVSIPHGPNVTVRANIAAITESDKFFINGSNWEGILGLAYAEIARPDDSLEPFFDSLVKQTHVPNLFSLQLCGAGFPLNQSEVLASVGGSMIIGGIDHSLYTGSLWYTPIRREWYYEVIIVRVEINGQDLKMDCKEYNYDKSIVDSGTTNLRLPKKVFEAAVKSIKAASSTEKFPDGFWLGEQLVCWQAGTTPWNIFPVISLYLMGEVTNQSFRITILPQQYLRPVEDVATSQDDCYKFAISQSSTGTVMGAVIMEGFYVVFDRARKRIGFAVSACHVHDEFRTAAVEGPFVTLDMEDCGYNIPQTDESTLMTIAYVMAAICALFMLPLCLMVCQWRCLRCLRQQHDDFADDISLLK
Method: (§1) BACE1 activity can be assessed in an AlphaScreen® assay. Compounds to be assessed (e.g. compounds as described in the above examples) are serially diluted 1:4 in DMSO, then plated by diluting 10 μL of compound with 40 μl of assay buffer (1×PBS, 0.01% Tween-20, pH 7.0, 0.05% BSA). The diluted compound is transferred (4 μL per well) to a 386 well assay plate and 4 μL of BACE1 enzyme ([…]) is added and incubated for 15 minutes. This assay uses a probe that is a BACE1 binding sight ligand linked to biotin, which can be displaced by test compound dependent on compound binding affinity. This of biotinylated probe (4 μL) is added and incubated for 1 hour, followed with 4 μL of donor and acceptor bead mixture and incubated for 2 hours. The fluorescent signal is read on a plate reader and the value as a function of compound concentration is used to determine the IC50. Compounds are also assessed for BACE1 and Cathepsin D activity using an FP Assay. Compounds to be assessed (e.g. compounds as described in the above examples) are serially diluted 1:3 with DMSO and each concentration point is transferred to a 96 well plate, 6 μL per well, followed by addition of 194 μL of assay buffer (100 mM sodium acetate, pH 4.5 with 0.001% Tween-20). A 10 μL compound sample from this plate is transferred to a well of a 384 well plate and combined with 10 μL per well of BACE1 enzyme (0.3 nM in assay buffer) or Cathepsin D enzyme (1.8 nM in assay buffer) and the plate is incubated at room temperature for 30 minutes.

Cathepsin D = Cathepsin D (Homo sapiens (Human), UniProt P07339); test: Cathepsin D FP assay; type: biochemical; conditions: pH 4.5, read-out: CatD FP IC50
Cathepsin D, sequence (P07339 65-412, species assumed): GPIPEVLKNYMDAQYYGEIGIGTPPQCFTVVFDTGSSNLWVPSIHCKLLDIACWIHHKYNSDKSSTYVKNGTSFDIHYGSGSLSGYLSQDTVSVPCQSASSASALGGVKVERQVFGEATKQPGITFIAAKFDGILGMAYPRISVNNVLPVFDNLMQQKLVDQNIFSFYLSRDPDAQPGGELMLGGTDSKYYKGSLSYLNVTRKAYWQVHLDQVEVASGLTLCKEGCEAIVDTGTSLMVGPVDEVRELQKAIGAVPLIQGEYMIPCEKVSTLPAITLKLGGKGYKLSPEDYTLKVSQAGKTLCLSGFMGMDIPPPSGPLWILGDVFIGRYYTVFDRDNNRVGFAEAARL
Method: as §1

BACE1 [3] = biological target: T1, BACE1; test: BACE1 AlphaScreen assay (displacement of biotinylated BACE1 binding site probe); conditions: read-out: BACE1 AS IC50
Method: as §1

[4] = dose at which Aβ level is reduced by 50%, HEKp293 SWE293 cells

Row | Structure (SMILES) | IC50 [1, 4] | IC50 (BACE1 [2]) | IC50 (Cathepsin D) | IC50 (BACE1 [3]) | IC50 [1]
1 | C[C@@]1(c2cc(NC(=O)c3ncc(Cl)cc3F)ccc2F)CC2(CCC(F)(F)CC2)OC(N)=N1 [Compound 9-133, (S)—N-(3-(2-amino-9,9-difluoro-4-methyl-1-oxa-3-azaspiro[5.5]undec-2-en-4-yl)-4-fluorophenyl)-5-chloro-3-fluoropicolinamide] | 16 nM | 16 nM | > 30000 nM | 9 nM | 
2 | COc1cnc(C(=O)Nc2ccc(F)c([C@]3(C)CC4(CCC4)OC(N)=N3)c2)cn1 [Compound 9-135, (S)—N-(3-(6-amino-8-methyl-5-oxa-7-azaspiro[3.5]non-6-en-8-yl)-4-fluorophenyl)-5-methoxypyrazine-2-carboxamide] | 27 nM | 281 nM | > 30000 nM | 10.5 nM | 
3 | C[C@@]1(c2cc(NC(=O)c3ccc(Br)cn3)ccc2F)CC2(CCC(F)(F)CC2)OC(N)=N1 [Compound 9-136, (S)—N-(3-(2-amino-9,9-difluoro-4-methyl-1-oxa-3-azaspiro[5.5]undec-2-en-4-yl)-4-fluorophenyl)-5-bromopicolinamide] |  | 50 nM | > 30000 nM | 7 nM | 8.9 nM
4 | Cc1nc(C(=O)Nc2ccc(F)c([C@]3(C)CC4(CCC4)OC(N)=N3)c2)co1 [Compound 9-138, (S)—N-(3-(6-amino-8-methyl-5-oxa-7-azaspiro[3.5]non-6-en-8-yl)-4-fluorophenyl)-2-methyloxazole-4-carboxamide] | 23 nM | 299 nM | > 30000 nM | 11 nM | 
5 | CC1(c2cc(NC(=O)c3ccc(C#N)cn3)ccc2F)CC2(CCOCC2)OC(N)=N1 (stereo not shown) [Compound 9-139, N-(3-(2-amino-4-methyl-1,9-dioxa-3-azaspiro[5.5]undec-2-en-4-yl)-4-fluorophenyl)-5-cyanopicolinamide] | 5 nM | 48 nM | > 30000 nM | 9 nM | 
6 | C[C@@]1(c2cc(NC(=O)c3ccc(Cl)cc3)ccc2F)CC2(CCC2)OC(N)=N1 [Compound 9-141, (S)—N-(3-(6-amino-8-methyl-5-oxa-7-azaspiro[3.5]non-6-en-8-yl)-4-fluorophenyl)-4-chlorobenzamide] |  | 839 nM | > 30000 nM | 17.5 nM | 109 nM
7 | C[C@]1(c2cc(NC(=O)c3ccc(F)cn3)ccc2F)CC2(CCC2)SC(N)=N1 [Compound 9-143, (R)—N-(3-(6-amino-8-methyl-5-thia-7-azaspiro[3.5]non-6-en-8-yl)-4-fluorophenyl)-5-fluoropicolinamide] | 6220 nM | 51800 nM | > 30000 nM | > 7500 nM | 
8 | C[C@@]1(c2cc(NC(=O)c3ccc(F)cn3)ccc2F)CC2(CCC2)SC(N)=N1 [Compound 9-144, (S)—N-(3-(6-amino-8-methyl-5-thia-7-azaspiro[3.5]non-6-en-8-yl)-4-fluorophenyl)-5-fluoropicolinamide] | 9 nM | 27 nM | > 30000 nM | 8 nM | 
9 | C[C@@]1(c2cc(NC(=O)c3ccc(Cl)cn3)ccc2F)CC2(CCC2)SC(N)=N1 [Compound 9-145, (S)—N-(3-(6-amino-8-methyl-5-thia-7-azaspiro[3.5]non-6-en-8-yl)-4-fluorophenyl)-5-chloropicolinamide] | 2 nM | 1.9 nM | > 30000 nM | 4.5 nM | 
10 | C[C@@]1(c2cc(NC(=O)c3ccc(F)cn3)ccc2F)CC2(COC2)SC(N)=N1 [Compound 9-146, (S)—N-(3-(6-amino-8-methyl-2-oxa-5-thia-7-azaspiro[3.5]non-6-en-8-yl)-4-fluorophenyl)-5-fluoropicolinamide] | 22 nM | 119 nM | > 30000 nM | 9.8 nM | 
11 | CC1(c2cc(NC(=O)c3ccc(F)cn3)ccc2F)CC2(CCOCC2)SC(N)=N1 (stereo not shown) [Compound 9-147, N-(3-(2-amino-4-methyl-9-oxa-1-thia-3-azaspiro[5.5]undec-2-en-4-yl)-4-fluorophenyl)-5-fluoropicolinamide] | < 4 nM | 29 nM | 15600 nM | 8 nM | 
12 | C[C@@]1(c2cc(NC(=O)c3ccc(F)cn3)ccc2F)CC2(CCOCC2)SC(N)=N1 [Compound 9-148, (S)—N-(3-(2-amino-4-methyl-9-oxa-1-thia-3-azaspiro[5.5]undec-2-en-4-yl)-4-fluorophenyl)-5-fluoropicolinamide] | 1.4 nM | 29 nM | > 30000 nM | 6.8 nM | 
13 | CC1(c2cc(NC(=O)c3ccc(Cl)cn3)ccc2F)CC2(CCOCC2)SC(N)=N1 (stereo not shown) [Compound 9-150, N-(3-(2-amino-4-methyl-9-oxa-1-thia-3-azaspiro[5.5]undec-2-en-4-yl)-4-fluorophenyl)-5-chloropicolinamide] | < 4 nM | 4 nM | 10600 nM | 9 nM | 
14 | C[C@@]1(c2cc(NC(=O)c3ccc(Cl)cn3)ccc2F)CC2(CCOCC2)SC(N)=N1 [Compound 9-151, (S)—N-(3-(2-amino-4-methyl-9-oxa-1-thia-3-azaspiro[5.5]undec-2-en-4-yl)-4-fluorophenyl)-5-chloropicolinamide] | 0.4 nM | 5 nM | > 30000 nM | 9.7 nM | 
15 | C[C@@]1(c2cc(NC(=O)c3ccc(Cl)cn3)ccc2F)CC2(CC2)OC(N)=N1 [Compound 9-154, (S)—N-(3-(5-amino-7-methyl-4-oxa-6-azaspiro[2.5]oct-5-en-7-yl)-4-fluorophenyl)-5-chloropicolinamide] | 20 nM | 113 nM | > 30000 nM | 7.5 nM | 
16 | CC1(c2cc(NC(=O)c3ccc(F)cn3)ccc2F)N=C(N)OC2(CCOCC2)C1(F)F (stereo not shown) [Compound 9-155, N-(3-(2-amino-5,5-difluoro-4-methyl-1,9-dioxa-3-azaspiro[5.5]undec-2-en-4-yl)-4-fluorophenyl)-5-fluoropicolinamide] | 177 nM | 277 nM | > 30000 nM | 31 nM | 
17 | C[C@]1(c2cc(NC(=O)c3ccc(F)cn3)ccc2F)N=C(N)OC2(CCOCC2)C1(F)F [Compound 9-157, (R)—N-(3-(2-amino-5,5-difluoro-4-methyl-1,9-dioxa-3-azaspiro[5.5]undec-2-en-4-yl)-4-fluorophenyl)-5-fluoropicolinamide] | 166 nM | 300 nM | > 30000 nM | 45 nM | 
18 | CC1(c2cc(NC(=O)c3ccc(Cl)cn3)ccc2F)N=C(N)OC2(CCOCC2)C1(F)F (stereo not shown) [Compound 9-158, N-(3-(2-amino-5,5-difluoro-4-methyl-1,9-dioxa-3-azaspiro[5.5]undec-2-en-4-yl)-4-fluorophenyl)-5-chloropicolinamide] | 182 nM | 94 nM | 19600 nM | 15 nM | 
19 | CC1(c2cc(NC(=O)c3ccc(F)cn3)ccc2F)N=C(N)OC2(CCC2)C1(F)F (stereo not shown) [Compound 9-159, N-(3-(6-amino-9,9-difluoro-8-methyl-5-oxa-7-azaspiro[3.5]non-6-en-8-yl)-4-fluorophenyl)-5-fluoropicolinamide] |  | 210 nM | > 30000 nM | 40 nM | 225 nM

From US9493485B2, “Spirocyclic dihydro-thiazine and dihydro-oxazine BACE inhibitors, and compositions and uses thereof” (Imago Pharmaceuticals, Inc., priority 2012, dated 2016)
